In patent publication US20260294874A1, “COMPOSITIONS COMPRISING MODULATORS OF RIBONUCLEOPROTEIN GRANULE FORMATION AND DISSOLUTION AND METHODS OF USE THEREOF” (University of Virginia Patent Foundation, priority 2023, published 2026):
Entries after “also recorded” stand apart in the source; their conditions may differ.

Tests used:
Type in all cases: cell-based
[1] = test system: Tyr and Lys sites of HeLa and HEK293T proteomes; experiment: Proteome-wide competitive ABPP SILAC LC-MS/MS chemical proteomics of liganded Tyr/Lys sites; conditions: glucose-deprived HEK293T cells, 25 μM, 2 h
Experimental: (§1) Preparation of SILAC proteomes for LC-MS/MS analysis. SILAC cell proteomes were fractionated to collect the supernatant and normalized to 2.3 mg/mL in PBS. ‘Heavy’ and ‘light’ proteomes were aliquoted (427 μL) and probe-modified proteins were conjugated to desthiobiotin-PEG-3-azide using copper-catalyze azide-alkyne cycloaddition, trypsinized into peptides using Trypsin/Lys-C Mix (Catalog No. V5071; Promega Corporation, Madison, Wisconsin, United States of America), enriched using PIERCE™ Avidin Agarose brand beads (Catalog No. 20219; Thermo Fisher Scientific Inc., Waltham, Massachusetts. United States of America), and prepared for nano-electrospray ionization-LC-MS/MS analysis as previously described in Hahm et al., 2020.
(§2) Data Analysis—Chemical Proteomics. Identification and analysis of peptides and proteins using LC-MS was accomplished using bioinformatics software and quality control parameter protocols as previously described in Hahm et al., 2020.
(§3) We performed quantitative liquid-chromatography tandem mass spectrometry (LC-MS/MS) chemical proteomic studies to identify the target protein and binding site(s) of SuTEx fragments with RNP granule modulating activity. […]
(§4) We detected ~8,700 probe-modified sites (Tyr and Lys) in our aggregate HeLa and HEK293T chemical proteomic analyses. […]

HNRPK Y72 = target: T1, HNRPK Y72 (Homo sapiens, UniProt P61978); experiment: Competitive ABPP SILAC LC-MS/MS chemical proteomics, HNRPK Y72
T1 construct: liganded site Y72
Experimental: as §1, §2, §3, §4

[2] = test system: stress granules (α-G3BP1) in HeLa cells; experiment: Dose-dependent inhibition of induced stress granules in HeLa cells by immunofluorescence; conditions: 2 h
Experimental: FIGS. 15A-15C. […] (FIG. 15B) Box and whisker plot of the number of SGs per cell from immunofluorescence images of G3BP1+SuTEx fragment ligand treatments in [COMPOUND LEFT OUT]-stressed cells from FIG. 15A (“x” indicates the mean; the center line is the median). […] A two-sample Student's t-test was performed for statistical comparison. (FIG. 15C) The average number of SGs per cell from FIG. 15B was plotted as a function of HHS-166 concentrations from cellular treatments to estimate the EC50 (~8 μM) for [COMPOUND LEFT OUT]-induced SG inhibition in situ. Data shown are representative of n=2 biologically independent replicates.
Immunofluorescence. Immunofluorescence (IF) of HEK293T cells was performed as previously described in Ciancone et al., 2022. HeLa cells were seeded at 9.0×10^4 in a 24-well plate with 12-mm glass coverslips. The next day, the cells were treated with 25 μM SuTEx probe for 2 hours in DMEM medium without FBS. The cells were then treated with 75 μM NaAsO2 for 30 minutes and fixed with 3% paraformaldehyde in PBS for 15 minutes at room temperature (RT) and washed with PBS twice. The fixed cells were permeabilized with PBST (0.1% Triton X-100) for 15 minutes at room temperature and blocked with 5% goat serum in PBST for 30 minutes at RT. The cells were incubated with anti-G3BP1 antibody H-10 (Catalog No. sc-365338 at 1:200 dilution; Santa Cruz Biotechnology, Inc., Dallas, Texas, United States of America) for 2 hours at RT and washed with PBST (0.1% Tween-20) for 5 minutes three times. Next, cells were incubated with goat anti-mouse Alexa 594 antibody (Catalog No. 115-585-003 at 1:800 dilution; Jackson ImmunoResearch, West Grove, Pennsylvania, United States of America) for 30 minutes at RT. […] A CellProfiler pipeline was developed to quantify the number of stress granules under each condition. Briefly, cells were recognized as blue^+ (nuclei) red^+ (G3BP1) objects, and the red^+ granules that meet the shape and size threshold were identified and counted. Cells on the border of linages were excluded from the analysis for more accurate quantification.

liganding of HNRPK Y72 (in words) (HNRPK Y72) | EC50 ([2]; Homo sapiens, in situ, 1-25 μM, n=2, read-out: EC50 for induced SG inhibition) | SMILES | number of reproducibly liganded sites in addition to EDC3 Y475 [1] | dose dependence of SG inhibition (in words) ([2]; 1-25 μM) | minimal effective concentration ([2]; Homo sapiens, p<0.001, read-out: concentration giving statistically significant decrease in SG formation)
– | – | COc1ccc(S(=O)(=O)n2cc(CS(C)(=O)=O)nn2)cc1 [AHL-030, 1-((4-Methoxyphenyl)sulfonyl)-4-((methylsulfonyl)methyl)-1H-1,2,3-triazole] | 7 | – | –
not | 8 µM | COc1ccc(S(=O)(=O)n2cc(C3CCCCC3)nn2)cc1 [HHS-166, 4-Cyclohexyl-1-((4-methoxyphenyl)sulfonyl)-111-1,2,3-triazole] | – | dose-dependent inhibition; also recorded: dose-dependent effects on SG formation | ≥ 12.5 µM
